How the values were obtained:
[1] = laxative effect in the test animals; parameters: species or system Wistar rats; conditions: in vivo
Procedure: (§1) Four week old male Wistar rats, divided into a control group and three test groups, consisting of 12 rats in each group, were held at a controlled temperature (27±2° C.) and 12:12 hrs light cycle. The animals had free access to food and water. The animals were weighed once a week and their weight gain was calculated. The control group was fed four weeks with a control (basal) diet and the test group was fed four weeks with the PDX-Polyol-diet, which consisted the control (basal) diet supplemented by an immunostimulating amount of polydextrose, and polyol as described in more detail below.
(§2) The in vivo test of Example 2 and the in vitro fermentation of Example 3 were repeated and the level of tyramine was measured.

[2] = test system: biogenic amines; test: biogenic amines from caecal digesta of rats (HPLC, dansyl derivatives); type: in vivo, Wistar rats; conditions: rat caecal digesta, Example 3
Procedure: as §1, with “(27+2°” for “(27±2°”
The control diet was the same diet as defined in Example 1. and the PDX-Polyol-diet was the same as defined in Example 2.
The digesta samples from caecum and colon were divided into pools (3 animals per pool) for the analysis of biogenic amines. The samples were stored in −20° C. until analysed. PH was measured from the caecum in situ.
Biogenic amines were determined from caecal digesta samples. […] The derivatives were separated on a C18 reversed phase column using mixture of ammonium acetate and acetonitrile as eluent, and detected with fluorescence detector.
as §2

[3] = test system: human fecal samples; test: 24 h batch fermentation with human fecal samples: production of SCFA; type: cell-based; conditions: 1% of each substance, 37° C., pH 6.9, anaerobic
Procedure: The test was based on a 24 h fermentation experiment performed with human fecal samples. Fecal samples were incubated in 24-hour batch cultures at 37° C. at pH 6.9 under anaerobic conditions containing a buffer medium (mineral salt, trace elements, vitamines). The medium was supplemented with 10% extract of caecal digesta from pig. Polydextrose, polyols and their combinations were added at the level of 1% each into the test cultures.

laxative effect [1]	Compound	amount of tyramine compared to a control diet [2]	2-metbutyric acid, production of SCFA (%) after 24 h fermentation [3]	Acetic acid, production of SCFA (%) after 24 h fermentation [3]	Butyric acid, production of SCFA (%) after 24 h fermentation [3]	Isobutyric acid, production of SCFA (%) after 24 h fermentation [3]	Isovaleric acid, production of SCFA (%) after 24 h fermentation [3]	Propionic acid, production of SCFA (%) after 24 h fermentation [3]	Total SCFA after 24 h fermentation [3]	Valeric acid, production of SCFA (%) after 24 h fermentation [3]
laxative effect	OC[C@@H](O)[C@@H](O[C@@H]1O[C@H](CO)[C@H](O)[C@H](O)[C@H]1O)[C@H](O)[C@@H](O)CO [Lactitol, lactitol]	reduced	0.2%	66.2%	31.1%	0.4%	0.2%	9.3%	153.6 mmol/L	0.9%
–	OC[C@@H](O)[C@@H](O[C@H]1O[C@H](CO)[C@@H](O)[C@H](O)[C@H]1O)[C@H](O)[C@@H](O)CO [Maltitol, maltitol]	–	0.2%	57.9%	21.3%	0.4%	0.2%	12.1%	157.0 mmol/L	1.2%
–	OC[C@@H](O)[C@@H](O)[C@H](O)[C@@H](O)CO [Sorbitol, sorbitol]	–	0.2%	55.2%	38.6%	0.5%	0.3%	11.4%	122.4 mmol/L	1.4%
–	OC[C@@H](O)[C@H](O)[C@@H](O)CO [Xylitol, xylitol]	–	0.3%	45.8%	27.9%	0.6%	0.3%	12.6%	191.6 mmol/L	1.9%
–	isomalt	–	0.2%	64.0%	–	0.4%	0.2%	12.8%	158.6 mmol/L	1.2%

From US20030157146A1, “Stimulation of the immune system with polydextrose” (priority 2002, published 2003)
